Assay: gradient 5% acetonitrile 3 min, to 50% in 2 min, to 85% in 15 min, held 3 min, 100 µL/min
Conditions: column: Zorbax Extend-C18 2.1 x 50 mm; eluents: water / acetonitrile, 0.1% formic acid
In short: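 Standards, all pure, were combined into mixtures of ~100 molecules and run at 100 μL/min on a Zorbax Extend-C18 column (2.1 × 50 mm, 1.8 μm) with water and acetonitrile, each containing 0.1% formic acid. A coupled quadrupole time-of-flight mass spectrometer operated in positive and negative ionization mode. Retention time values come from computationally picked adduct peaks, each inspected manually.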

Row | Structure (SMILES) | RP-LC retention time
1 | O=C(NC1CCc2ccccc21)C1CCN(Cc2noc(-c3ccc(F)cc3)n2)CC1 (stereo unspecified) | 683 s
2 | COc1ccc(-c2nnc(COc3cccc(NC(=O)c4ccoc4)c3)o2)cc1 | 866 s
3 | CCOC(=O)c1ccccc1NC(=O)Cn1nc2c(N3CCSCC3)nccn2c1=O | 1010 s
4 | CCOc1ccccc1NC(=O)N1CCCC1c1nc(-c2cccc(OC)c2)no1 (stereo unspecified) | 1100 s
5 | CCCc1ccc(S(=O)(=O)N2CCC(C)(C(=O)NCc3ccc(F)cc3)CC2)cc1 | 1070 s
6 | CC1CCN(C(=O)c2cn(-c3ccc(-c4nc(C(C)(C)C)no4)cn3)cn2)CC1 | 1130 s
7 | Cc1[nH]nc(-c2c(C)sc(C)c2S(=O)(=O)N2CCN(c3ccccc3F)CC2)c1C | 1010 s
8 | Nc1cc(C2CCN(C(=O)c3ccc(Br)cc3)CC2)no1 | 716 s
9 | CCOc1ccccc1NS(=O)(=O)c1cc2c3c(c1)CCC(=O)N3CCC2 | 548 s
10 | CCNc1nc(NC)nc(-n2cnc(SC)n2)n1 | 674 s
11 | CCC1CCCCN1C(=O)c1cnc2nc(C)ccc2c1Nc1ccc(OC)cc1C (stereo unspecified) | 692 s
12 | COc1cccc2c(SCc3ccccn3)nccc12 | 683 s
13 | Cc1ccc(-n2nc(N3CCN(C(=O)CC(C)C)CC3)ccc2=O)cc1C | 831 s
14 | CCOc1ccc(NC(=O)c2cc3ccccc3cc2O)cc1 | 1130 s
15 | CCn1cc(-c2nc(C)c(C(=O)NCc3ccccn3)s2)c2cccnc21 | 946 s
16 | COCCn1c(SCc2nc(-c3cccc(F)c3)no2)nc2cc3c(cc2c1=O)OCO3 | 1090 s
17 | Cc1ccc(=O)n(CCNC(=O)c2cc(C)oc2C)n1 | 616 s
18 | CS(=O)(=O)N1CCCC1C(=O)N1CCCC1 (stereo unspecified) | 584 s
19 | Cn1c(C(=O)NCc2ccc(F)cc2)cc2sccc21 | 663 s
20 | Cc1ccn2c(NC(=O)C(C)(C)Oc3ccc(Cl)cc3)c(-c3ccccc3)nc2c1 | 804 s
21 | COc1ccc(OC)c(NC(=O)Cn2nc3c4cc(Cl)ccc4ncn3c2=O)c1 | 740 s
22 | COc1ccc(NC(=O)c2ccc(-c3cncnc3)nc2)cc1 | 687 s
23 | CCC1Oc2ccc(S(=O)(=O)N3CCC(C(=O)Nc4cc(C)cc(C)c4)CC3)cc2NC1=O (stereo unspecified) | 837 s

Row | Structure (SMILES) | RP-LC retention time
24 | Cc1cc(N2CCN(C)CC2)nc2ccc(NC(=O)Nc3ccc(F)cc3F)cc12 | 594 s
25 | Cc1ccc(C(C)C)c(OCC(=O)Nc2ccc(S(=O)(=O)Nc3cc(C)on3)cc2)c1 | 1000 s
26 | CN1CCCCCCN(C(=O)c2cnccn2)[C@H]2CCC[C@H]2C1=O | 649 s
27 | Cn1c(=O)c2nc(S(=O)(=O)CCC(=O)Nc3cc(F)ccc3Cl)n(C)c2n(C)c1=O | 778 s
28 | O=C(NCc1ccc(F)cc1Cl)c1cc(C2CC2)n2nccc2n1 | 1010 s
29 | O=C1NCCCn2cc(S(=O)(=O)NCc3ccc(OC(F)(F)F)cc3)cc21 | 740 s
30 | Cc1ccc(NC(=O)N2CCC(CCN)CC2)cc1 | 589 s
31 | COc1ccc(C(=O)N2CCc3nc(-c4ccc(Cl)cc4)ncc3C2)cc1F | 1050 s
32 | O=C(Nc1nc2ccccc2[nH]1)c1ccc(Br)cc1 | 710 s
33 | Cc1noc2nc(C)n(CC(=O)NC(C)c3ccccc3)c(=O)c12 (stereo unspecified) | 756 s
34 | Cc1ccc(CNC(=O)C2(c3ccc(NC(=O)C(C)C)cc3)CCC2)cc1C | 936 s
35 | COc1ccc(OCc2ccc(-c3nc(C#N)c(NCCN(C)C)o3)o2)cc1 | 676 s
36 | CCCN(C(=O)c1ccco1)c1nc(-c2ccccc2)cs1 | 1250 s
37 | CCn1cc(-c2nc(CC(=O)Nc3ccc(F)cc3Cl)cs2)c2cccnc21 | 720 s
38 | O=S1(=O)N=CN(c2ccc3c(c2)CCC3)c2ncccc21 | 862 s
39 | COc1ccc(OC)c(S(=O)(=O)Nc2cccn3c(C4CCC4)nnc23)c1 | 772 s
40 | Cc1cc(F)ccc1NC(=O)C1CCN(S(=O)(=O)c2cc(C(=O)N(C)C)cs2)CC1 | 758 s
41 | COc1ccc2c(c1)C1(CCN(C(=O)c3ccc(C)c(F)c3)C1)C(=O)N2 (stereo unspecified) | 745 s
42 | CC(C)c1nc2c(c(=O)n1CC(=O)NCc1ccc(F)cc1)CCN(Cc1ccccc1)C2 | 683 s
43 | CN(C)C(CNS(=O)(=O)c1cc(Cl)ccc1Cl)c1cccs1 (stereo unspecified) | 591 s
44 | CCNC(=O)CCCN1C(=O)CCn2nc(-c3cn(C)c4ccccc34)cc21 | 695 s
45 | Cn1ccnc1N1CCN(C(=O)CSCc2ccccc2)CC1 | 571 s
46 | Cn1c(CNC(=O)C2CCC2)nc2c1CN(C(=O)c1ccc(C(F)(F)F)s1)CC2 | 656 s

Row | Structure (SMILES) | RP-LC retention time
47 | CC1=C(c2ccccc2)S(=O)(=O)N=C1N1CCCN(C(=O)Cn2ccnc2C)CC1 | 589 s
48 | CCC(=O)N1CCC2(C1)C(=O)N(C)c1ccc(OC)cc12 (stereo unspecified) | 652 s
49 | O=C(Cc1csc(SCc2cccc(Cl)c2)n1)Nc1ccc2c(c1)OCCO2 | 953 s
50 | CCCN(CC1CCOC1)C(=O)Nc1ccccc1F (stereo unspecified) | 728 s
51 | CCOc1ccc(C(=O)N(c2ccccc2CC)C2C=CS(=O)(=O)C2)cc1OCC (stereo unspecified) | 840 s
52 | COc1ccc(NC(=O)COc2cc(C)nc(N3CCCC3)n2)cc1Cl | 653 s
53 | Cc1cc(N2CCN(C(=O)Nc3ccc(Cl)cc3)CC2)nc(N2CCOCC2)n1 | 655 s
54 | O=C(Cn1cc(-c2nnco2)c2ccccc21)NCc1ccccc1Cl | 831 s
55 | CCOC(=O)C1CCC(CNC(=O)N2CCN(Cc3nc4ccccc4o3)CC2)CC1 (stereo unspecified) | 676 s
56 | CCN1C(=O)COc2ccc(-c3noc(/C=C/c4ccccc4)n3)cc21 | 1170 s
57 | CN1C2CCC1CC(OC(c1ccccc1)c1ccccc1)C2 (stereo unspecified) | 784 s
58 | COc1ccc(N2CCN(c3cc(C(=O)O)c4cc(NS(C)(=O)=O)ccc4n3)CC2)cc1 | 609 s
59 | COc1ccc(-c2noc(C3CCCN3C(=O)Nc3ccccc3C)n2)cc1 (stereo unspecified) | 983 s
60 | O=C(CN1CCN(c2ccccc2)CC1)Nc1nc(-c2ccccc2)cs1 | 740 s
61 | CCCn1cc(SCC(=O)Nc2cc(C)on2)c2ccccc21 | 883 s
62 | CCCN1C(=O)COc2cc(-c3noc(C(=O)NC4CC4)n3)ccc21 | 841 s
63 | CN(CC(=O)N1CCN(c2ccccc2F)CC1)S(=O)(=O)c1c[nH]c(C(=O)N2CCCC2)c1 | 752 s
64 | O=C(CCc1c(-c2ccccc2)nc2ccccn12)Nc1ccc(Br)cc1 | 725 s
65 | COc1ccc2[nH]c(=O)c(CCC(=O)O)cc2c1 | 712 s
66 | O=S(=O)(c1ccc(Cl)cc1)N1CCC(c2nc(-c3cccnc3)no2)CC1 | 961 s
67 | Cc1cc(F)ccc1NS(=O)(=O)c1cc(-c2[nH]ncc2C(=O)N2CCCC2)oc1C | 728 s
68 | CCCn1cc(S(=O)(=O)Nc2ccc(C)cc2F)c2cccnc21 | 936 s
69 | COc1ccccc1N1CCN(C(=O)c2cc3c(=O)n(C)ccc3n2C)CC1 | 651 s

Row | Structure (SMILES) | RP-LC retention time
70 | CC1CCN(C(=O)c2cc3c(s2)CCC(C(=O)NCc2ccccn2)C3)CC1 (stereo unspecified) | 668 s
71 | COc1ccc(OC)c(NC(=O)N2CCN(c3ccc(=O)n(-c4ccc(C)c(C)c4)n3)CC2)c1 | 880 s
72 | COc1nc2ccccc2nc1N1CCCC(C(=O)Nc2cccc(Cl)c2)C1 (stereo unspecified) | 1220 s
73 | CC1(C(=O)NCc2ccc(F)cc2)CCN(S(=O)(=O)c2ccc(C3CCCCC3)cc2)CC1 | 1210 s
74 | COc1ccc(-c2noc(-c3cccnc3N3CCN(Cc4ccccc4)CC3)n2)cc1 | 760 s
75 | NC(=O)c1[nH]c2ccc(F)cc2c1N1CCCC1=O | 637 s
76 | CCN(CC)C(=O)c1ccc2c(c1)N(CC(=O)NC1CCCCC1)C(=O)CS2 | 761 s
77 | COc1cccc(N2CCN(C(=O)C3CC(=O)N(c4ccc5oc(C)nc5c4)C3)CC2)c1 (stereo unspecified) | 752 s
78 | COc1ccc2c(=O)c(Oc3ccc(C(=O)Nc4nccs4)cc3)c(C)oc2c1 | 788 s
79 | Clc1ccc(-c2ccc(CNCc3ccco3)o2)c(Cl)c1 | 743 s
80 | Cc1ccsc1C(=O)N1CCC2(CC1)NC(=O)N(Cc1ccccc1Cl)C2=O | 847 s
81 | CCOC(=O)c1ccc(NC(=O)N2CCc3cn(CC)c4cccc(c34)C2)cc1 | 1150 s
82 | Cc1cc(C(=O)Nc2sc(C)c(C)c2C#N)on1 | 786 s
83 | O=C(C1CCN(c2ccc3nncn3n2)CC1)N1CCN(c2ncccn2)CC1 | 604 s
84 | CCOc1ccccc1C(=O)N1CCC2(CC1)NC(=O)c1cc(C)ccc1N2CC | 861 s
85 | Cc1ccc(-c2csc(-n3nc(C)c(CC(=O)Nc4ccc(C)cc4C)c3C)n2)cc1 | 1260 s
86 | CN(C)CCCNc1oc(-c2ccc(F)cc2)nc1S(=O)(=O)c1ccccc1 | 678 s
87 | CCCN1C(=O)COc2ccc(-c3noc(Cc4cccc(F)c4)n3)cc21 | 1100 s
88 | O=C(NCC1CCOCC1)Nc1ccc(F)cc1 | 670 s
89 | CCOCCCNC(=O)N1CCN(Cc2nc3cc(C(=O)N(C)C)ccc3n2CC)CC1 | 581 s
90 | CCCC(=O)Nc1ccc(-n2cnc(C(=O)N3CCSCC3)c2)nc1 | 671 s
91 | Cc1ccc(S(=O)(=O)/C=C/C#N)cc1 | 929 s

— the METLIN SMRT retention time set (Domingo-Almenara et al. 2019)
